In PubChem BioAssay AID1053164 (Broad Institute, 2014):
Values joined by “and” are separate entries in the source; they are usually repeats but may differ in a detail not shown here. Identical values can stand only once. Active and inactive are the calls of the source. How the calls were made is not given here.

Target: Dihydrolipoyl dehydrogenase (Mycobacterium tuberculosis (strain ATCC 25618 / H37Rv)) (UniProt P9WHH9)
Test: Mycobacterium tuberculosis lipoamide dehydrogenase inhibition, DTNB colorimetric coupled assay, dose response confirmation, dry powder (AID 1053164)
Conditions: Purified M. tb Lpd, DTNB colorimetric plate reader

Row | Compound | IC50
1 | CCCC[C@@H]1C(=O)N(C)CC[C@@H]2CC[C@H](OC)[C@H](COc3c(C#N)cccc3C(=O)N1C)O2 | > 100 µM (inactive)
2 | CO[C@H]1CC[C@H]2CCN(C)C(=O)[C@@H](C)N(C)C(=O)c3cccnc3OC[C@@H]1O2 | > 100 µM (inactive)
3 | CO[C@H]1CC[C@H]2CCN(C)C(=O)CCCN(C)C(=O)c3cc(Cl)cnc3OC[C@@H]1O2 | > 100 µM (inactive)
4 | CO[C@H]1CC[C@H]2CCN(C)C(=O)[C@@H](Cc3ccccc3)N(C)C(=O)c3cccc(C#N)c3OC[C@@H]1O2 | > 100 µM (inactive)
5 | CO[C@H]1CC[C@H]2CCN(C)C(=O)[C@@H](C)N(C)C(=O)c3cccc(C#N)c3OC[C@@H]1O2 | 6 µM and > 100 µM (inactive)
6 | CO[C@H]1CC[C@H]2CC(=O)N(C)CCN(C)C(=O)c3cccc(C#N)c3OC[C@@H]1O2 | > 100 µM (inactive)
7 | CO[C@H]1CC[C@H]2CCN(C)C(=O)[C@H]3CCCN3C(=O)c3cccc(C#N)c3OC[C@@H]1O2 | > 100 µM (inactive)
8 | CO[C@H]1CC[C@H]2CCN(C)C(=O)CN(C)C(=O)c3cccc(C#N)c3OC[C@@H]1O2 | > 100 µM (inactive)
9 | CO[C@H]1CC[C@H]2CCN(C)C(=O)CCN(C)C(=O)c3cccc(C#N)c3OC[C@@H]1O2 | > 100 µM (inactive)
10 | CO[C@H]1CC[C@H]2CCN(C)C(=O)[C@@H](c3ccccc3)N(C)C(=O)c3cccc(C#N)c3OC[C@@H]1O2 | > 100 µM (inactive)
11 | CO[C@H]1CC[C@H]2CCN(C)C(=O)[C@@H](C(C)C)N(C)C(=O)c3cccc(C#N)c3OC[C@@H]1O2 | > 100 µM (inactive)
12 | CO[C@H]1CC[C@H]2CCN(C)C(=O)[C@@H](C)N(C)C(=O)c3cc(Cl)cnc3OC[C@@H]1O2 | 25 µM
13 | CO[C@H]1CC[C@H]2CCN(C)C(=O)CCCN(C)C(=O)c3cccc(C#N)c3OC[C@@H]1O2 | > 100 µM (inactive)
14 | CO[C@H]1CC[C@H]2CCN(C)C(=O)CCCN(C)C(=O)c3cccnc3OC[C@@H]1O2 | > 100 µM (inactive)
15 | CO[C@H]1CC[C@H]2CCN(C)C(=O)[C@@H](C)N(C)C(=O)c3c(C(F)(F)F)ccnc3OC[C@@H]1O2 | > 100 µM (inactive)
16 | CO[C@H]1CC[C@H]2CCN(C)C(=O)[C@@H](C)N(C)C(=O)c3ccc(F)nc3OC[C@@H]1O2 | > 100 µM (inactive)
